# Source: US11214556B1, “Method of treating colorectal cancer” (King Abdulaziz University, priority 2019, dated 2022)
# How the values were obtained:
# HCT-116 cells [1] = assay: SRB cytotoxicity assay, HCT-116; format: cell-based, human; details: SRB assay, 72 h exposure; ± SEM
# Method in brief: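 Cells in RPMI1640/10% FBS were seeded at 5000 per well and grown 24 h. They were then exposed to 0.01–100 μM compound, or 1% DMSO, for 72 h at 37 °C. After TCA fixation and SRB staining, OD was read at 510 nm and viability expressed relative to untreated controls.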
# HCT-116 cells [2] = assay: ROS accumulation by DCFDA staining; format: cell-based, human; details: 24 and 48 h, compared to untreated cells
# Procedure: The elevation of oxidative stress inside cancer cells, consequent to treatment with 4112, was investigated via monitoring ROS release over time (24 and 48 h). In this test, the 2′,7′-dichlorofluorescin diacetate (DCFDA) dye was used to detect various ROS species and emit green fluorescence.
# To determine the effect of the newly synthesized compounds on the cellular redox status, two different free radical sensitive probe dichlorofluorescin diacetate (DCFDA) was used. Cells were cultured on sterile 22 mm^2 cover slips (Harvard Apparatus, MA, USA) in sterile six well plates at a density of 2×10^5 cells/well. […] At the end of the exposure, cells attached to cover slips were washed thrice with PBS and incubated with DCFDA 10 μM for 30 min at 37° C. in the dark. Thereafter, cells were washed thrice with PBS and the cover slips were then mounted on a glass slide with anti-fade mounting medium containing 4′,6′-diamidino-2-phenylindole, dihydrochloride (DAPI) (Sigma-Aldrich, St. Louis, Mo., USA), which was used as counter stain and viewed with an epifluorescence microscope, Leica, DM 5500 B (Leica, Buffalo Grove, Ill., USA) at a magnification of 60×. Data were captured digitally and quantified using the microscope provided software.
# Swiss albino mice = assay: Acute oral toxicity (LD50), OECD guideline 423; format: in vivo; details: oral, mice
# Excerpt: Since compounds with electrophilic properties, e.g., MA are usually involved in a variety of toxic effects on mammalians, the general acute toxicity of 1512, 3712 and 4112 was investigated by determining the in vivo lethal dose (LD50) according to the Globally Harmonized Classification System (GHS) and following the Organization for Economic Cooperation and Development (OECD) guideline 423 (modified, adopted Mar. 23, 2006). As observed in the cellular assay, the compound safety was confirmed, as the LD50 for all compounds were between 2000-5000 mg/kg (Category 5). See Spielmann, H.; Genschow, E.; Liebsch, M.; Halle, W., Determination of the starting dose for acute oral toxicity (LD50) testing in the up and down procedure (UDP) from cytotoxicity data. ATLA 1999, 27 (6), 957-966, incorporated herein by reference in its entirety.
# The experiment was conducted on 12 healthy Swiss albino mice (males and females) weighing 22-27 g and aged 8 to 10 weeks obtained from the Animal Station, Pharmacology Dept, Faculty of Pharmacy, King Abdulaziz University, Jeddah. See Shoieb, S. M.; Esmat, A.; Khalifa, A. E.; Abdel-Naim, A. B., Chrysin attenuates testosterone-induced benign prostate hyperplasia in rats. Food and Chemical Toxicology 2018, 111, 650-659, incorporated herein by reference in its entirety. All animals were kept at the regulated temperature (average 23° C.), air quality (Central air conditioning) and light (12-h light/dark cycles). Animals were provided free access to food pellets ad libitum and water. The experimental procedure was approved by the Research Ethics Committee, Faculty of Pharmacy, King Abdulaziz University prior to starting the laboratory work. Animals were humanely treated according to international and scientific principles. Changes other than vitality of the animals such as behavioral and food consumption habits were not observed in this study.
# The compounds 1512, 3712 and 4112 of purity 95% or more (LC/MS) were prepared for this study as 10% suspension in water containing 0.5% tween 80.
# The animals were distributed randomly into four groups (3 mice at each group). […] The second group received an oral dose of 2000 mg/Kg of the drug and observed after 24 h to count the deceased animals. According to the Guideline 423, when all animals were found alive, the same test was repeated (dose 2000 mg/kg) were given to the third group (3 animals) and observed for 24 h. All animals survived and therefore, a dose of 5000 mg/kg were administered to the fourth and final group.
smiles,measurement,setting,value
"CCCNC(=O)/C(=C/c1c[nH]c2ccccc12)NC(=O)/C=C/c1cccs1 [Compound 4112, (Z)-3-(1H-indol-3-yl)-N-propyl-2-[(E)-3-(thien-2-yl)acrylamidolacry]amide]",IC50,HCT-116 cells [1],2850 ± 1500 nM
same,accumulation of ROS,HCT-116 cells [2],causes accumulation of ROS
same,GHS acute toxicity category,Swiss albino mice,Category 5
